Patent publication US20060160894A1, “Benzamides as ppar modulators” (LABORATORIOS S.A.L.V.A.T.,S.A., priority 2003, published 2006)

How the values were obtained:
[1] = target: T1, PPARγ LBD (Homo sapiens, UniProt P37231); experiment: LBD-hPPARs transactivation assay (GAL4-LBD luciferase reporter in COS-7 cells); assay type: cell-based; details: 48 h
T1 construct: expressed in transfected cells; host or cells: COS-7
T1 sequence (P37231 238-503 limits assumed): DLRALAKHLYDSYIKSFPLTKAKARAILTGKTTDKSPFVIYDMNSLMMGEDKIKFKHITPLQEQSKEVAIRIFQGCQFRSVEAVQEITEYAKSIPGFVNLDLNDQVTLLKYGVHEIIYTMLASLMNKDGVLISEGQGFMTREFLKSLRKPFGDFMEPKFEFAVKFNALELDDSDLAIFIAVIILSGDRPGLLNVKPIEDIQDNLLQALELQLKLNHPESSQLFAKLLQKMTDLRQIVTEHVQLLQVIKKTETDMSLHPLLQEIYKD
Excerpt: LBD-hPPARs Transactivation Assay
COS-7 cells were cultivated in 24-well plates and transfected with the pFACMV plasmids that encode the chimeric proteins containing the GAL4 DNA binding domain fused to the PPARγ LBD. The reporter plasmid for the foregoing constructions was pFR-Luc, which contains five repetitions of the GAL4-response element in front of a promoter that controls the transcription of the luciferase gene. Lipofectamine was used as a transfection agent.
The plasmids of the chimeric receptors and the reporter gene were inserted in the cells by transitory transfection in COS-7 cells in culture.

[2] = target: T2, GST-hPPARγ2 (Homo sapiens, UniProt P37231); experiment: Assay of binding to the PPARγ2 ([3H]BRL-49853 displacement); details: Table 19; GST-hPPARγ2, [3H]BRL-49853 100 nM; read-out: Affinity PPARγ(1)
T2 construct: the complete cDNA of the […] human PPARs were cloned into pGEX4T2; made in house; host or cells: Escherichia coli BL21 (DE3)
T2 sequence (P37231 1-505): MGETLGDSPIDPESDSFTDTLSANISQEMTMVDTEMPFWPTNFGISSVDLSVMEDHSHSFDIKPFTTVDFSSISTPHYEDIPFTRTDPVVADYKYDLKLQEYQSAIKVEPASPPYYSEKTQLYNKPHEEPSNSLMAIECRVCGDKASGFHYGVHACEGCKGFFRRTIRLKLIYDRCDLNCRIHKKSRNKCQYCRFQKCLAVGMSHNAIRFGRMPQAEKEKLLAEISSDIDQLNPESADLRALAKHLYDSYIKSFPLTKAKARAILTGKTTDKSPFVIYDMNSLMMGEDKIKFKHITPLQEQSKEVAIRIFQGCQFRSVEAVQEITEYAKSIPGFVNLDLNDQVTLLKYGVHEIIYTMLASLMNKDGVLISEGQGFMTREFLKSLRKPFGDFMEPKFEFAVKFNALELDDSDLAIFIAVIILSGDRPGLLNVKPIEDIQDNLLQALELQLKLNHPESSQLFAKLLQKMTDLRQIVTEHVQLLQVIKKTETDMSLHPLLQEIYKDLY
Method: Assay of Binding to the PPARγ2
The cDNA encoding for the open reading frame of the hPPARγ2 is amplified by PCR (polymerase chain reaction) and inserted in the plasmid pGEX-4T-2.
The reaction mixture was transferred to a Multiscreen Durapore (Millipore) microplate containing glutathione-Sepharose 4B in every well. The reaction mixture was left to incubate with the resin during 10 min, and then centrifuged at 735 g during 2 min. To dissociate the receptor bound to the resin, reduced glutathione 10 mM is added and incubated during 10 min. The receptor was eluted by centrifugation. Then, 800 μL of scintillation liquid were added to the elution and the contained radioactivity was quantified by liquid scintillation spectroscopy (Microbeta Wallac, Perkin Elmer).

SMILES | Functional activity PPARγ [1] | Ki [2]
COC(=O)[C@H](Cc1ccc(OCc2ccccc2)cc1)NC(=O)c1ccc(OCc2ccccc2Cl)cc1 [Example 20, (2S)-3-(4-Benzyloxyphenyl)-2-[4-(2-chlorobenzyloxy)benzoylamino]propionic acid methyl ester] | Partial agonist | < 1000 nM
COC(=O)[C@H](Cc1ccc(OCc2ccccc2)cc1)NC(=O)c1ccc(OCc2ccccc2C)cc1 [Example 27, (2S)-3-(4-Benzyloxyphenyl)-2-[4-(2-methylbenzyloxy)benzoylamino]propionic acid methyl ester] | Antagonist | < 1000 nM
COC(=O)[C@H](Cc1ccc(OCc2ccccc2)cc1)NC(=O)c1ccc(OCCOc2cccc3cccnc23)cc1 [Example 98, (2S)-3-(4-Benzyloxyphenyl)-2-{4-[2-(quinolin-8-yloxy)ethoxy]-benzoylamino}propionic acid methyl ester] | Antagonist | < 1000 nM
O=C(N[C@@H](Cc1ccc(OCc2ccccc2)cc1)C(=O)O)c1ccc(OCc2ccccc2)cc1 [Example 129, (2S)-2-(4-Benzyloxybenzoylamino)-3-(4-benzyloxyphenyl)propionic acid] | Partial agonist | < 1000 nM
O=C(N[C@H](Cc1c[nH]c2ccccc12)C(=O)O)c1ccc(OCCN(Cc2ccccc2)Cc2ccccc2)cc1 [Example 131, (2R)-2-[4-(2-Dibenzylaminoethoxy)benzoylamino]-3-(1H-indol-3-yl)propionic acid] | Partial agonist | 1000 to 3000 nM
O=C(N[C@@H](Cc1ccc(OCc2ccccc2)cc1)C(=O)O)c1cccc(OCc2cccc(OCc3ccccc3)c2)c1 [Example 145, (2S)-2-[3-(3-Benzyloxybenzyloxy)benzoylamino]-3-(4-benzyloxyphenyl)propionic acid] | Antagonist | 1000 to 3000 nM
O=C(O)CN(Cc1cccc(Oc2ccccc2)c1)C(=O)c1ccc(OCCN(Cc2ccccc2)Cc2ccccc2)cc1 [Example 146, {[4-(2-Dibenzylaminoethoxy)benzoyl]-(3-phenoxybenzyl)amino}acetic acid] | Antagonist | 1000 to 3000 nM
O=C(N[C@@H](Cc1ccc(OCc2ccccc2)cc1)C(=O)O)c1ccc(OCCOc2cccc(Br)c2)cc1 [Example 161, (2S)-3-(4-Benzyloxyphenyl)-2-{4-[2-(3-bromophenoxy)ethoxy]benzoylamino}propionic acid] | Antagonist | 1000 to 3000 nM
O=C(O)CCN(Cc1cccc(OCc2ccccc2)c1)C(=O)c1ccc(OCCN(Cc2ccccc2)Cc2ccccc2)cc1 [Example 162, 3-{(3-Benzyloxybenzyl)-[4-(2-dibenzylaminoethoxy)benzoyl]amino}propionic acid] | Antagonist | < 1000 nM
O=C(O)CCN(Cc1ccc(OCc2ccccc2)cc1)C(=O)c1cccc(OCCN(Cc2ccccc2)Cc2ccccc2)c1 [Example 164, 3-{(4-Benzyloxybenzyl)-[3-(2-dibenzylaminoethoxy)benzoyl]amino}propionic acid] | Antagonist | 1000 to 3000 nM
Cc1nc2ccccc2nc1OCCOc1cccc(C(=O)N[C@@H](Cc2ccc(OCc3ccccc3)cc2)C(=O)O)c1 [Example 180, (2S)-3-(4-Benzyloxyphenyl)-2-{3-[2-(3-methylquinoxalin-2-yloxy)ethoxy]benzoylamino}propionic acid] | Partial agonist | < 1000 nM
O=C(N[C@@H](Cc1ccc(OCc2ccccc2)cc1)C(=O)O)c1ccc(OCc2ccc(OCc3ccccc3)cc2)cc1 [Example 183, (2S)-2-[4-(4-Benzyloxybenzyloxy)benzoylamino]-3-(4-benzyloxyphenyl)propionic acid] | Partial agonist | < 1000 nM
O=C(N[C@@H](Cc1ccc(OCc2ccccc2)cc1)C(=O)O)c1cccc(OCc2ccc(-c3ccccc3)cc2)c1 [Example 187, (2S)-3-(4-Benzyloxyphenyl)-2-[3-(biphenyl-4-ylmethoxy)benzoylamino]propionic acid] | Agonist | < 1000 nM
O=C(N[C@@H](Cc1ccc(OCc2ccccc2)cc1)C(=O)O)c1cccc(OCc2cccc(Oc3ccccc3)c2)c1 [Example 188, (2S)-3-(4-Benzyloxyphenyl)-2-[3-(3-phenoxybenzyloxy)benzoylamino]propionic acid] | Partial agonist | < 1000 nM

Further lines, results first:

Functional activity PPARγ [1] | Ki [2] | SMILES
Partial agonist | < 1000 nM | COC(=O)[C@H](Cc1ccc(OCc2ccccc2)cc1)NC(=O)c1ccc(OCc2cccc(Cl)c2)cc1 [Example 21, (2S)-3-(4-Benzyloxyphenyl)-2-[4-(3-chlorobenzyloxy)benzoylamino]propionic acid methyl ester]
Agonist | < 1000 nM | COC(=O)[C@H](Cc1ccc(OCc2ccccc2)cc1)NC(=O)c1ccc(OCCOc2nc3ccccc3nc2C)cc1 [Example 95, (2S)-3-(4-Benzyloxyphenyl)-2-{4-[2-(3-methylquinoxalin-2-yloxy)ethoxy]benzoylamino}propionic acid methyl ester]
Antagonist | 1000 to 3000 nM | O=C(NC(Cc1ccc(-c2ccccc2)cc1)C(=O)O)c1ccc(OCCN(Cc2ccccc2)Cc2ccccc2)cc1 (centres unmarked) [Example 136, 3-Biphenyl-4-yl-2-[4-(2-dibenzylaminoethoxy)benzoylamino]propionic acid]
Antagonist | 1000 to 3000 nM | O=C(NC(Cc1cccc(Oc2ccccc2)c1)C(=O)O)c1ccc(OCCN(Cc2ccccc2)Cc2ccccc2)cc1 (centres unmarked) [Example 141, 2-[4-(2-Dibenzylaminoethoxy)benzoylamino]-3-(3-phenoxyphenyl)propionic acid]
Antagonist | 1000 to 3000 nM | O=C(NC(Cc1c[nH]c2ccc(Br)cc12)C(=O)O)c1ccc(OCCN(Cc2ccccc2)Cc2ccccc2)cc1 (centres unmarked) [Example 142, 3-(5-Bromo-1H-indol-3-yl)-2-[4-(2-dibenzylaminoethoxy)benzoylamino]propionic acid]
Partial agonist | 1000 to 3000 nM | O=C(N[C@@H](Cc1ccc(OCc2ccccc2)cc1)C(=O)O)c1ccc(OCCCc2ccccc2)cc1 [Example 153, (2S)-3-(4-Benzyloxyphenyl)-2-[4-(3-phenylpropoxy)benzoylamino]propionic acid]
Partial agonist | > 3000 nM | Cc1nc2ccccc2nc1OCCOc1ccc(C(=O)N[C@@H](Cc2ccc(OCc3ccccc3)cc2)C(=O)O)cc1 [Example 160, (2S)-3-(4-Benzyloxyphenyl)-2-{4-[2-(3-methylquinoxalin-2-yloxy)ethoxy]benzoylamino}propionic acid]
Antagonist | < 1000 nM | O=C(O)CCN(Cc1cccc(OCc2ccccc2)c1)C(=O)c1cccc(OCCN(Cc2ccccc2)Cc2ccccc2)c1 [Example 163, 3-{(3-Benzyloxybenzyl)-[3-(2-dibenzylaminoethoxy)benzoyl]amino}propionic acid]
Antagonist | 1000 to 3000 nM | Cc1nc2ccccc2nc1OCCOc1ccc(C(=O)N(CCC(=O)O)Cc2cccc(OCc3ccccc3)c2)cc1 [Example 170, 3-{(3-Benzyloxybenzyl)-{4-[2-(3-methylquinoxalin-2-yloxy)ethoxy]benzoyl}amino}propionic acid]
Antagonist | < 1000 nM | O=C(O)CCN(Cc1ccc(OCc2ccccc2)cc1)C(=O)c1ccc(OCc2cccc(OCc3ccccc3)c2)cc1 [Example 176, 3-{(4-Benzyloxybenzyl)-[4-(3-benzyloxybenzyloxy)benzoyl]amino}propionic acid]
Partial agonist | < 1000 nM | O=C(N[C@@H](Cc1ccc(OCc2ccccc2)cc1)C(=O)O)c1cccc(OCc2ccc(OCc3ccccc3)cc2)c1 [Example 185, (2S)-2-[3-(4-Benzyloxybenzyloxy)benzoylamino]-3-(4-benzyloxyphenyl)propionic acid]
